Like-named read-outs stand apart in the source and are kept apart here.
Experiments:
HeLa MKYP cells [1] = experiment: Cell death measured by DAPI staining, with 1 μM FCCP/oligomycin or no toxin (no FO); type: cell-based; details: for Max cell death at 25 μM compound, 1 uM FO (%) / Cell death at 25 μM (no FO) (%): 25 μM compound
Method: EP-0035985, EP-0037821, EP-0038098, and EP-0038099 in the presence of 1 μM FCCP/oligomycin or with no toxin (no FO) for 6 hrs. H2O2 treatment was performed as a control for cell death as measured by DAPI staining.
EP-0035985, EP-0038461, EP-0038463, and EP-0038503 in the presence of 1 μM FCCP/oligomycin or with no toxin (no FO) for 6.5 hrs. H2O2 treatment was performed as a control for cell death as measured by DAPI staining.
EP-0035985, EP-0038504, EP-0038508, and EP-0038521 in the presence of 1 μM FCCP/oligomycin or with no toxin (no FO) for 6.5 hrs. H2O2 treatment was performed as a control for cell death as measured by DAPI staining.
EP-0035985, EP-0038461, EP-0038463, EP-0038503, EP-0038504, EP-0038508, and EP-0038521 in the presence of 1 μM FCCP/oligomycin or with no toxin (no FO) for 6.5 hrs. H2O2 treatment was performed as a control for cell death as measured by DAPI staining.

HeLa MKYP cells [2] = experiment: Human mitophagy assay (HeLa mKeima assay, FACS); type: cell-based
Method: Briefly, HeLa MKYP cells were plated at 10,000 cells/well in 96 well plates along with compounds at various concentrations. Following 16 hrs of incubation, cells were treated with 1 uM FCCP/oligomycin for 6 hours, then analyzed via FACS for the presence of mitochondria in lysosomes (as determined by an emissions spectrum shift from the pH-sensitive mtKeima tag).
Briefly, HeLa cells expressing a mitophagy indicator (mtKeima) protein were treated with […] of FCCP and Oligomycin followed by the specified dose of compound, then analyzed by FACS to quantify the percentage of cells undergoing mitophagy.

[3] = read-out: Mitophagy induction EC50
[4] = Homo sapiens, HeLa, read-out: Mitophagy induction EC50
[5] = Homo sapiens, HeLa, HeLa mKeima assay, read-out: Mitophagy EC50 (HeLa mKeima assay)

| SMILES | Highest safe dose (cytotoxicity; no FO; safe means DAPI+ <20%) (HeLa MKYP cells [1]) | Max % death with 1 μM FO (HeLa MKYP cells [1]) | EC50 (HeLa MKYP cells [2]; [3]) | EC50 (HeLa MKYP cells [2]; [4]) | Max cell death at 25 μM compound, 1 uM FO (%) (HeLa MKYP cells [1]) | Cell death at 25 μM (no FO) (%) (HeLa MKYP cells [1]) | EC50 (HeLa MKYP cells [2]; [5]) |
| --- | --- | --- | --- | --- | --- | --- | --- |
| C[S@](=N)(=O)C1CN([C@H]2COc3ccccc3[C@@H]2Nc2ncnc3[nH]c(C(F)(F)F)cc23)C1 (single isomer, unassigned) [EP-0041495] | 25.0 µM | 2.9% | 2.52 µM | – | – | – | – |
| C[S@](=N)(=O)C1CN([C@H]2COc3ccccc3[C@@H]2Nc2ncnc3[nH]c(C(F)(F)F)cc23)C1 (single isomer, unassigned) [EP-0041497] | 25.0 µM | 2.6% | 22 µM | – | – | – | – |
| C[S@@](=N)(=O)C1CN(C2COc3ccccc3C2Nc2ncnc3[nH]c(C(F)(F)F)cc23)C1 (single isomer, unassigned) [EP-0041498] | 25.0 µM | 3.7% | – | > 25 µM | – | – | – |
| COC[C@@H]1CCN(C2COc3ccccc3C2Nc2ncnc3[nH]c(C4CC4)cc23)C1 (single isomer, unassigned) [EP-0041515] | 25.0 µM | 5.6% | 5.06 µM | – | – | – | – |
| FC(F)(F)c1cc2c(N[C@H]3c4ccccc4OC[C@@H]3N3CCC4(COC4)C3)ncnc2[nH]1 (single isomer, unassigned) [EP-0041516] | 25.0 µM | 11.8% | – | 3.24 µM | – | – | – |
| OC[C@H]1CN([C@H]2COc3ccccc3[C@@H]2Nc2ncnc3[nH]c(C(F)(F)F)cc23)CCO1 (single isomer, unassigned) [EP-0041558] | 25.0 µM | 10.6% | 1.42 µM | – | – | – | – |
| OC[C@H]1CN([C@H]2COc3ccccc3[C@@H]2Nc2ncnc3[nH]c(C(F)(F)F)cc23)CCO1 (single isomer, unassigned) [EP-0041559] | 25.0 µM | 3.7% | 10.3 µM | – | – | – | – |
| OC[C@@H]1CN([C@H]2COc3ccccc3[C@@H]2Nc2ncnc3[nH]c(C(F)(F)F)cc23)CCO1 (single isomer, unassigned) [EP-0041585] | 25.0 µM | 6.6% | – | 16.1 µM | – | – | – |
| OC[C@@H]1CN([C@H]2COc3ccccc3[C@@H]2Nc2ncnc3[nH]c(C(F)(F)F)cc23)CCO1 (single isomer, unassigned) [EP-0041586] | 25.0 µM | 10.7% | 9.59 µM | – | – | – | – |
| c1ccc2c(c1)OCC(N1CC3CCOC3C1)C2Nc1ncnc2[nH]c(C3CC3)cc12 (single isomer, unassigned) [EP-0041667] | 25.0 µM | 3.1% | > 25 µM | – | – | – | – |
| c1ccc2c(c1)OCC(N1CC3CCOC3C1)C2Nc1ncnc2[nH]c(C3CC3)cc12 (single isomer, unassigned) [EP-0041669] | 25.0 µM | 2.5% | > 25 µM | – | – | – | – |
| Fc1ccc2c(c1)CC[C@@H](N1CCOCC1)[C@@H]2Nc1ncnc2[nH]c(C3CC3)cc12 [EP-0039747] | 25.0 µM | 24.4% | – | 9.31 µM | 24.4% | 12.9% | 9.31 µM |
| N#Cc1cn([C@@H]2CCc3ccccc3[C@@H]2Nc2ncnc3[nH]c(C(F)(F)F)cc23)cn1 [EP-0039748] | 25.0 µM | 6.5% | – | 8.07 µM | – | – | – |
| FC(F)(F)c1cc2c(N[C@H]3c4ccccc4C[C@@H]3N3C[C@H]4COC[C@H]4C3)ncnc2[nH]1 [EP-0039754] | 25.0 µM | 17.7% | – | > 25 µM | – | – | – |
| c1ccc2c(c1)C[C@H](N1C[C@H]3COC[C@H]3C1)[C@H]2Nc1ncnc2[nH]c(C3CC3)cc12 [EP-0040075] | 25.0 µM | 6.5% | – | > 25 µM | – | – | – |
| FC(F)(F)c1cc2c(N[C@H]3c4ccccc4OC[C@@H]3N3CCOCC3)ncnc2[nH]1 [EP-0040078] | 25.0 µM | 18.5% | – | 1.9 µM | 18% | 5.92% | 1.77 µM |
| FC(F)(F)c1cc2c(N[C@H]3c4ccccc4OC[C@H]3N3CCOCC3)ncnc2[nH]1 [EP-0040084] | 25.0 µM | 3.7% | – | 15.6 µM | – | – | – |
| OC[C@@H]1CCCN1[C@H]1CCc2ccccc2[C@@H]1Nc1ncnc2[nH]c(C3CC3)cc12 [EP-0040085] | 8.3 µM | 38.1% | – | > 25 µM | – | – | – |
| FC(F)(F)c1cc2c(N[C@H]3c4ccccc4CC[C@@H]3N3CCCOCC3)ncnc2[nH]1 [EP-0040139] | 25.0 µM | 8.5% | – | 3.66 µM | – | – | – |
| c1ccc2c(c1)OC[C@@H](N1CCOCC1)[C@H]2Nc1ncnc2[nH]c(C3CC3)cc12 [EP-0040140] | 25.0 µM | 11.1% | – | 8.71 µM | – | – | – |
| FC(F)(F)c1cc2c(N[C@@H]3c4ccccc4OC[C@H]3N3CCOCC3)ncnc2[nH]1 [EP-0040252] | 25.0 µM | 9.1% | – | 1.11 µM | – | – | – |
| Fc1ccc2c(c1)OC[C@H](N1CCOCC1)[C@H]2Nc1ncnc2[nH]c(C3CC3)cc12 [EP-0040500] | 25.0 µM | 8.6% | – | 0.99 µM | – | – | – |
| C[C@@]12COC[C@]1(C)CN(C1CCc3ccccc3C1Nc1ncnc3[nH]c(C(F)(F)F)cc13)C2 (stereo partly drawn) [EP-0040523] | 25.0 µM | 39.0% | – | 2.73 µM | – | – | – |
| C[C@@]12COC[C@]1(C)CN(C1COc3ccccc3C1Nc1ncnc3[nH]c(C(F)(F)F)cc13)C2 (stereo partly drawn) [EP-0040524] | 25.0 µM | 27.7% | – | 2.68 µM | – | – | – |
| C[C@@]12COC[C@]1(C)CN(C1CCc3ccccc3C1Nc1ncnc3[nH]c(C4CC4)cc13)C2 (stereo partly drawn) [EP-0040542] | 25.0 µM | 15.3% | – | 1.45 µM | – | – | – |
| FC(F)(F)c1cc2c(NC3c4ccccc4OCC3N3CCC4(CCOC4)CC3)ncnc2[nH]1 (stereo not drawn) [EP-0040545] | 25.0 µM | 3.7% | – | > 25 µM | – | – | – |
| FC(F)(F)c1cc2c(N[C@H]3c4ccccc4CC[C@H]3C3CCOCC3)ncnc2[nH]1 [EP-0040557] | 25.0 µM | 2.7% | – | > 25 µM | – | – | – |
| FC(F)(F)c1cc2c(N[C@@H]3c4ccccc4CC[C@@H]3C3CCOCC3)ncnc2[nH]1 [EP-0040558] | 25.0 µM | 3.0% | – | > 25 µM | – | – | – |
| FC(F)(F)c1cc2c(N[C@H]3c4ccccc4OC[C@H]3C3CCOCC3)ncnc2[nH]1 [EP-0040586] | 8.3 µM | 16.9% | – | > 25 µM | – | – | – |
